Laboratory results reported in ChEMBL document CHEMBL4825694 (Eur J Med Chem, 2021).

What was measured:
[1] = target: T1, Peroxisome proliferator-activated receptor gamma (Homo sapiens, UniProt P37231); experiment: Binding affinity to GAL4-DBD-fused PPARgamma ligand binding domain (unknown origin) expressed in HEK293T cells by spectra-fluorophotometry analysis
T1 sequence (P37231 whole entry): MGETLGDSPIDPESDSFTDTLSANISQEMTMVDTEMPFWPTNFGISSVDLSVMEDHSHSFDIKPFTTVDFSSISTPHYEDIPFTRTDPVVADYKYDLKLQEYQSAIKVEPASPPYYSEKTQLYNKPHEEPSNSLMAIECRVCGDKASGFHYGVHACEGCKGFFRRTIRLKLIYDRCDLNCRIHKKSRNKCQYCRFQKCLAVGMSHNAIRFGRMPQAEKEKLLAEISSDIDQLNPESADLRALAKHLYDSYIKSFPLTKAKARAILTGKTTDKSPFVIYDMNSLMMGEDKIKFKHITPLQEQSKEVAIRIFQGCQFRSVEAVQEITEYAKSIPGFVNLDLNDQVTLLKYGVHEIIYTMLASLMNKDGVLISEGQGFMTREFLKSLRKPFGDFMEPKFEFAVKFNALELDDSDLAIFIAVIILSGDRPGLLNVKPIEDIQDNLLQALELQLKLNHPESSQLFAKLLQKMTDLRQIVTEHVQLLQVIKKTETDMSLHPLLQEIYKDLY

[2] = target: T1, Peroxisome proliferator-activated receptor gamma; experiment: Partial agonist activity at GAL4 DBD-fused PPARgamma LBD (unknown origin) expressed in pG5 luc and pBIND transfected HEK293T cells assessed as transcriptional activation incubated for 12 hrs by fluorescence based luciferase assay
[3] = target: T2, Prostaglandin G/H synthase 2 (Homo sapiens, UniProt P35354)
T2 sequence (P35354 whole entry): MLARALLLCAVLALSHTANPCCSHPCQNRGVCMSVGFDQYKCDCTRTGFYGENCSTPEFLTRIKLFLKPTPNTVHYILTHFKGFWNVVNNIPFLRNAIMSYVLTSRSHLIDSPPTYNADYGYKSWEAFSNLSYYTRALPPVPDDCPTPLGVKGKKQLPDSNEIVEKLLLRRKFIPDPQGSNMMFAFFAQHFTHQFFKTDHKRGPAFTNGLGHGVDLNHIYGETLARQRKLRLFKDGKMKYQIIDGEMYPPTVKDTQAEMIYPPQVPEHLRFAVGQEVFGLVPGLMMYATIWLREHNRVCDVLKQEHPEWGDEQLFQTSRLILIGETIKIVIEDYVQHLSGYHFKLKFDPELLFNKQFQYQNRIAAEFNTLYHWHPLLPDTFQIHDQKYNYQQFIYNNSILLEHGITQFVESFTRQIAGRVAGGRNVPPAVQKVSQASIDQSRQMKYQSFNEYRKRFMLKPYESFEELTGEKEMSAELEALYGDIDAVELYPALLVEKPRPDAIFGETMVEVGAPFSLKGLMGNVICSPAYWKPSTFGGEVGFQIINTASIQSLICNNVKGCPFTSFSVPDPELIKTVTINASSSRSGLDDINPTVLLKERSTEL

CC1=C(CC(=O)O)c2cc(F)ccc2/C1=C\c1ccc([S+](C)[O-])cc1 (configuration not stated)
Kd [1]: > 100 µM
EC50 [2]: 22.7 µM

COc1cccc(/C=C2/C(C)=C(CC(=O)O)c3cc(F)ccc32)c1
Kd [1]: 2.46 µM
EC50 [2]: 5.3 µM

CC1=C(CC(=O)O)c2cc(F)ccc2/C1=C\c1ccc(C(C)C)cc1
Kd [1]: > 100 µM
EC50 [2]: > 50 µM

CC1=C(CC(=O)O)c2cc(F)ccc2/C1=C\c1ccc(Oc2ccccc2)cc1
Kd [1]: > 100 µM
EC50 [2]: > 50 µM

CC1=C(CC(=O)O)c2ccccc2/C1=C/c1cccc(C)c1
Kd [1]: > 100 µM
EC50 [2]: > 50 µM

CC1=C(CC(=O)O)c2ccccc2/C1=C\c1cccc(C)c1
Kd [1]: > 100 µM
EC50 [2]: > 50 µM

CC1=C(CC(=O)O)c2cc(F)ccc2/C1=C\c1cccc(OCc2ccccc2)c1
IC50 [3]: 286 µM

CC1=C(CC(=O)O)c2cc(F)ccc2/C1=C\c1ccc(OCc2ccccc2)cc1
Kd [1]: > 100 µM
EC50 [2]: > 50 µM

CC1=C(CC(=O)O)c2cc(F)ccc2/C1=C\c1ccc(F)cc1
Kd [1]: 6.67 µM
EC50 [2]: 11.7 µM
